Experimental data reported in patent publication US20040127529A1, “Remedies for skin ulcer” (Fujisawa Pharmaceutical Co., Ltd., priority 1999, published 2004).

Tested on: full-thickness wound in C57BL/KsJ db/db mice
Test: db/db mouse full-thickness wound model
Assay type: in vivo
Conditions: for wound area reduction: 100 μl applied once daily for 18 days, day 18 following wound construction (vehicle 73%); for day from which wound area differs significantly (p<0.05) from the vehicle control group: once daily
From the text: Test Example 1 (db/db mouse full-thickness wound model)
Using 10-week-old male C57BL/KsJ db/db mice (db/db mice) and the corresponding control C57BL/KsJ +m/+m mice (+m/+m mice), the back hair coat was removed with a depilatory cream. After 3 days, using ophthalmological scissors, the skin in a circular area with a diameter of about 1.5 cm at the dorsal midline was removed to construct a full-thickness wound. Thereafter, the full-thickness wound area was covered with a poly-urethane film agent. During 18 consecutive days beginning the day of wound construction, 100 μl of the investigational compound solution or distilled water (vehicle) was taken in a syringe and applied through the polyurethane film once daily. The polyurethane film agent was changed every day and after disinfection with 3% H2O2, the drug was applied in the same manner as above. The wound area was measured by the tracing method under light anesthesia every other day as a rule. With the initial wound area at the beginning of drug application being taken as 100%, the fractional area at each day of measurement was calculated.

In the case of `O=C(O)COc1cccc2c1CC[C@](O)(COC(=O)N(c1ccccc1)c1ccccc1)C2` [test compound, [[(2R)-5-(carboxymethoxy)-2-hydroxy-1,2,3,4-tetrahydronaphth-2-yl]methyl]N,N-diphenylcarbamate], the “early expansion of wound area” value (0.01% and 0.1% solutions) was “not observed”, the “overall conclusion on wound healing” value (0.01% and 0.1% solutions) was “wound healing-promoting action” and the wound area reduction (0.01% solution) was 90%. For the same compound, the “day from which wound area differs significantly (p<0.05) from the vehicle control group” value (0.01% solution) was at least 7 days, the wound area reduction (0.1% solution) was 93% and the “day from which wound area differs significantly (p<0.05) from the vehicle control group” value (0.1% solution) was at least 4 days.
